# Data as given in PubChem BioAssay AID248 (DTP/NCI, 2004).
# Where “and” joins values, the source holds several entries; their conditions need not be identical. Equal entries are not always repeated. Inconclusive results and toxic doses are left out.
# System: L1210 leukemia ip in BDF1 mice, survival T/C
# Test: NCI In Vivo Anticancer Drug Screen. Data for tumor model L1210 Leukemia (intraperitoneal) in B6D2F1 (BDF1) mice
# Settings: endpoint: mean survival time, higher = longer survival
# In short: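 Antitumor effect is assessed in tumor-bearing animals. Survival in the compound arm is compared with a vehicle-dosed control arm and expressed as their quotient.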
# [1] = dose: 100.0 mg/kg/injection, schedule: Q01DX001 (ip), vehicle: carboxymethylcellulose (CMC)
# [2] = dose: 100.0 mg/kg/injection, schedule: Q04DX003 (ip), vehicle: Klucel (hydroxypropylcellulose) (HPC)
# [3] = dose: 200.0 mg/kg/injection, schedule: Q04DX003 (ip), vehicle: Klucel (hydroxypropylcellulose) (HPC)
# [4] = dose: 25.0 mg/kg/injection, schedule: Q01DX009 (ip), vehicle: saline
# [5] = dose: 50.0 mg/kg/injection, schedule: Q01DX009 (ip), vehicle: saline
# [6] = dose: 100.0 mg/kg/injection, schedule: Q01DX001 (ip), vehicle: saline with Tween-80
# [7] = dose: 100.0 mg/kg/injection, schedule: Q04DX003 (ip), vehicle: saline with Tween-80
# [8] = dose: 200.0 mg/kg/injection, schedule: Q04DX003 (ip), vehicle: saline with Tween-80
# [9] = dose: 400.0 mg/kg/injection, schedule: Q01DX001 (ip), vehicle: saline with Tween-80
smiles,measurement,setting,value
O=C(O)c1cc(OCc2ccccc2)cc(OCc2ccccc2)c1,T/C,"dose: 25.0 mg/kg/injection, schedule: Q01DX009 (ip), vehicle: carboxymethylcellulose (CMC)",102 % of control and 105 % of control
same,T/C,"dose: 50.0 mg/kg/injection, schedule: Q01DX009 (ip), vehicle: carboxymethylcellulose (CMC)",101 % of control and 91 % of control
same,T/C,[1],101 % of control and 103 % of control
same,T/C,"dose: 100.0 mg/kg/injection, schedule: Q01DX009 (ip), vehicle: carboxymethylcellulose (CMC)",92 % of control and 112 % of control and 91 % of control
same,T/C,"dose: 100.0 mg/kg/injection, schedule: Q04DX002 (ip), vehicle: carboxymethylcellulose (CMC)",92 % of control and 88 % of control
same,T/C,"dose: 100.0 mg/kg/injection, schedule: Q04DX003 (ip), vehicle: carboxymethylcellulose (CMC)",95 % of control and 97 % of control
same,T/C,"dose: 200.0 mg/kg/injection, schedule: Q01DX001 (ip), vehicle: carboxymethylcellulose (CMC)",96 % of control and 107 % of control
same,T/C,"dose: 200.0 mg/kg/injection, schedule: Q04DX002 (ip), vehicle: carboxymethylcellulose (CMC)",95 % of control and 97 % of control
same,T/C,"dose: 200.0 mg/kg/injection, schedule: Q04DX003 (ip), vehicle: carboxymethylcellulose (CMC)",99 % of control and 91 % of control
same,T/C,"dose: 400.0 mg/kg/injection, schedule: Q01DX001 (ip), vehicle: carboxymethylcellulose (CMC)",93 % of control and 96 % of control
same,T/C,"dose: 400.0 mg/kg/injection, schedule: Q04DX002 (ip), vehicle: carboxymethylcellulose (CMC)",92 % of control and 97 % of control
same,T/C,"dose: 400.0 mg/kg/injection, schedule: Q04DX003 (ip), vehicle: carboxymethylcellulose (CMC)",92 % of control and 100 % of control
C/C=C1/C[C@@H](C)[C@@](C)(O)C(=O)OCC2=CCN3CC[C@@H](OC1=O)[C@@H]23,T/C,"dose: 10.0 mg/kg/injection, schedule: Q01DX015 (ip), vehicle: carboxymethylcellulose (CMC)",93 % of control
same,T/C,"dose: 20.0 mg/kg/injection, schedule: Q01DX015 (ip), vehicle: carboxymethylcellulose (CMC)",96 % of control
same,T/C,"dose: 30.0 mg/kg/injection, schedule: Q01DX015 (ip), vehicle: carboxymethylcellulose (CMC)",98 % of control
same,T/C,[1],105 % of control
CCC[CH2][Sn]([CH2]CCC)([S]C#N)[S]C#N,T/C,"dose: 3.12 mg/kg/injection, schedule: Q04DX002 (ip), vehicle: gum acacia",101 % of control
same,T/C,"dose: 6.25 mg/kg/injection, schedule: Q04DX002 (ip), vehicle: gum acacia",96 % of control
same,T/C,"dose: 12.5 mg/kg/injection, schedule: Q04DX002 (ip), vehicle: gum acacia",96 % of control
Cc1ccc(C(O)(c2ccc(C)cc2)C2C(c3ccccc3)N2C)cc1 (configuration not stated),T/C,"dose: 100.0 mg/kg/injection, schedule: Q01DX001 (ip), vehicle: Klucel (hydroxypropylcellulose) (HPC)",98 % of control
same,T/C,"dose: 200.0 mg/kg/injection, schedule: Q01DX001 (ip), vehicle: Klucel (hydroxypropylcellulose) (HPC)",96 % of control
same,T/C,"dose: 400.0 mg/kg/injection, schedule: Q01DX001 (ip), vehicle: Klucel (hydroxypropylcellulose) (HPC)",102 % of control
CC(NC(=O)CCN)C(=O)O (configuration not stated),T/C,"dose: 25.0 mg/kg/injection, schedule: Q04DX002 (ip), vehicle: saline",96 % of control
same,T/C,"dose: 50.0 mg/kg/injection, schedule: Q04DX002 (ip), vehicle: saline",89 % of control
same,T/C,"dose: 100.0 mg/kg/injection, schedule: Q04DX002 (ip), vehicle: saline",102 % of control
O=C(O)C1C(C(=O)O)C2(Cl)C(Cl)=C(Cl)C1(Cl)C2(Cl)Cl.[Mn] (configuration not stated),T/C,"dose: 44.0 mg/kg/injection, schedule: Q01DX009 (ip), vehicle: saline",107 % of control
same,T/C,"dose: 50.0 mg/kg/injection, schedule: Q01DX009 (ip), vehicle: saline sonified",114 % of control
same,T/C,"dose: 66.0 mg/kg/injection, schedule: Q01DX009 (ip), vehicle: saline",105 % of control
same,T/C,"dose: 100.0 mg/kg/injection, schedule: Q01DX009 (ip), vehicle: saline",105 % of control
same,T/C,[2],97 % of control
same,T/C,"dose: 150.0 mg/kg/injection, schedule: Q01DX009 (ip), vehicle: saline",112 % of control
same,T/C,"dose: 200.0 mg/kg/injection, schedule: Q01DX009 (ip), vehicle: saline sonified",104 % of control
same,T/C,[3],95 % of control
FC(F)(F)c1nc2nc(Cl)c(Cl)nc2[nH]1,T/C,"dose: 6.25 mg/kg/injection, schedule: Q01DX009 (ip), vehicle: saline",99 % of control
same,T/C,"dose: 12.5 mg/kg/injection, schedule: Q01DX009 (ip), vehicle: saline",94 % of control
same,T/C,"dose: 25.0 mg/kg/injection, schedule: Q01DX001 (ip), vehicle: saline with Tween-80",106 % of control
same,T/C,"dose: 25.0 mg/kg/injection, schedule: Q01DX009 (ip), vehicle: other",95 % of control
same,T/C,[4],103 % of control
same,T/C,"dose: 33.0 mg/kg/injection, schedule: Q01DX009 (ip), vehicle: other",113 % of control
same,T/C,"dose: 44.0 mg/kg/injection, schedule: Q04DX003 (ip), vehicle: other",121 % of control
same,T/C,"dose: 44.0 mg/kg/injection, schedule: Q04DX003 (ip), vehicle: saline sonified",94 % of control
same,T/C,"dose: 44.0 mg/kg/injection, schedule: Q04DX003 (ip), vehicle: saline with Tween-80",102 % of control and 103 % of control
same,T/C,"dose: 50.0 mg/kg/injection, schedule: Q01DX001 (ip), vehicle: saline with Tween-80",96 % of control
same,T/C,[5],116 % of control
same,T/C,"dose: 66.0 mg/kg/injection, schedule: Q04DX003 (ip), vehicle: saline sonified",122 % of control
same,T/C,"dose: 66.0 mg/kg/injection, schedule: Q04DX003 (ip), vehicle: saline with Tween-80",109 % of control
same,T/C,[6],110 % of control
same,T/C,[2],154 % of control
same,T/C,"dose: 100.0 mg/kg/injection, schedule: Q04DX003 (ip), vehicle: other",176 % of control
same,T/C,"dose: 100.0 mg/kg/injection, schedule: Q04DX003 (ip), vehicle: saline sonified",159 % of control
same,T/C,[7],153 % of control and 156 % of control
same,T/C,"dose: 150.0 mg/kg/injection, schedule: Q04DX003 (ip), vehicle: saline with Tween-80",102 % of control
COc1ccc([N+](=O)[O-])cc1N,T/C,[2],101 % of control
same,T/C,[3],104 % of control
same,T/C,"dose: 400.0 mg/kg/injection, schedule: Q04DX003 (ip), vehicle: Klucel (hydroxypropylcellulose) (HPC)",90 % of control
C=C[CH2][Sn]([Br])([Br])[CH2]C=C,T/C,"dose: 100.0 mg/kg/injection, schedule: Q01DX009 (ip), vehicle: saline with Tween-80",106 % of control
same,T/C,"dose: 200.0 mg/kg/injection, schedule: Q01DX009 (ip), vehicle: saline with Tween-80",95 % of control
same,T/C,"dose: 400.0 mg/kg/injection, schedule: Q01DX009 (ip), vehicle: saline with Tween-80",95 % of control
N/C(=N\O)c1ccc(Cl)cc1,T/C,[7],104 % of control
same,T/C,[8],98 % of control
CC(C)(NC(=O)N(CCCl)N=O)C(=O)O,T/C,"dose: 15.0 mg/kg/injection, schedule: Q01DX001 (ip), vehicle: saline with Tween-80",103 % of control
same,T/C,"dose: 23.0 mg/kg/injection, schedule: Q01DX001 (ip), vehicle: saline with Tween-80",115 % of control
same,T/C,"dose: 36.0 mg/kg/injection, schedule: Q01DX001 (ip), vehicle: saline with Tween-80",119 % of control
same,T/C,"dose: 119.0 mg/kg/injection, schedule: Q01DX001 (ip), vehicle: saline with Tween-80",227 % of control
same,T/C,"dose: 178.0 mg/kg/injection, schedule: Q01DX001 (ip), vehicle: saline with Tween-80",339 % of control
same,T/C,"dose: 266.0 mg/kg/injection, schedule: Q01DX001 (ip), vehicle: saline with Tween-80",123 % of control
same,T/C,[9],352 % of control
NCC(c1ccccc1)c1ccccc1,T/C,"dose: 1.25 mg/kg/injection, schedule: Q01DX009 (ip), vehicle: saline",103 % of control
same,T/C,"dose: 12.5 mg/kg/injection, schedule: Q04DX003 (ip), vehicle: saline",98 % of control
same,T/C,[4],98 % of control
same,T/C,"dose: 25.0 mg/kg/injection, schedule: Q04DX003 (ip), vehicle: saline",98 % of control
same,T/C,[5],95 % of control
same,T/C,"dose: 50.0 mg/kg/injection, schedule: Q04DX003 (ip), vehicle: saline",102 % of control
COc1ccc(NC(=S)/C(=C(/[O-])c2ccc(C)cc2)[n+]2ccccc2)cc1,T/C,[6],92 % of control
same,T/C,"dose: 100.0 mg/kg/injection, schedule: Q04DX002 (ip), vehicle: saline with Tween-80",95 % of control and 96 % of control
same,T/C,[7],105 % of control and 108 % of control and 90 % of control
same,T/C,"dose: 200.0 mg/kg/injection, schedule: Q01DX001 (ip), vehicle: saline with Tween-80",102 % of control
same,T/C,"dose: 200.0 mg/kg/injection, schedule: Q04DX002 (ip), vehicle: saline with Tween-80",97 % of control and 110 % of control
same,T/C,[8],93 % of control and 98 % of control and 105 % of control
same,T/C,[9],94 % of control
same,T/C,"dose: 400.0 mg/kg/injection, schedule: Q04DX002 (ip), vehicle: saline with Tween-80",98 % of control and 104 % of control
same,T/C,"dose: 400.0 mg/kg/injection, schedule: Q04DX003 (ip), vehicle: saline with Tween-80",93 % of control and 95 % of control and 91 % of control
